Data published in publication PMC9977279, “Cryo-EM structures of mitochondrial respiratory complex I from Drosophila melanogaster” (eLife, 2023).

Legend:
Assay in all cases: cryo-EM structure ([…] A)
[1] = target: T1, subunit NDUFA10 of Drosophila complex I (Drosophila melanogaster, UniProt P91929); format: binding; settings: modelled in Dm1 map; identity taken from earlier work
T1 construct: gene ND-42; subunit within native 43-subunit complex I purified from mitochondrial membranes of whole adult flies; no tag
T1 sequence (P91929 61-407): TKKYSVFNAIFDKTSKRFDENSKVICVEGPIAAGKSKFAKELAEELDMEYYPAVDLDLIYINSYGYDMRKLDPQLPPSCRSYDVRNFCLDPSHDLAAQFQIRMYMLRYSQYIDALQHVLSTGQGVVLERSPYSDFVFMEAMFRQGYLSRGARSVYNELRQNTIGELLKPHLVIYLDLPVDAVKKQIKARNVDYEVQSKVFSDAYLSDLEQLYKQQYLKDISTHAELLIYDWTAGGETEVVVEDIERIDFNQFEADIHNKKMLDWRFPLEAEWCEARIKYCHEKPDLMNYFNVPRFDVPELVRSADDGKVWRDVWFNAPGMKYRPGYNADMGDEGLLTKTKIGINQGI

[2] = tested on: T2, Drosophila complex I (ubiquinone-binding site; subunits NDUFS2, NDUFS7, ND1, ND3, ND6); set-up: species or system Drosophila melanogaster; settings: co-purified; Dm1 active state; partially inserted in ubiquinone channel; ubiquinone-9 or -10 referred to as Q9
T2 construct: gene ND-49; native 43-subunit complex I (14 core, 29 supernumerary), ~1 MDa monomer, purified from mitochondrial membranes of whole adult flies in DDM; no tag; NDUFA2 and NDUFC1 absent; with NADH dehydrogenase [ubiquinone] flavoprotein 1
T2 sequence (Q9V4E0 39-468): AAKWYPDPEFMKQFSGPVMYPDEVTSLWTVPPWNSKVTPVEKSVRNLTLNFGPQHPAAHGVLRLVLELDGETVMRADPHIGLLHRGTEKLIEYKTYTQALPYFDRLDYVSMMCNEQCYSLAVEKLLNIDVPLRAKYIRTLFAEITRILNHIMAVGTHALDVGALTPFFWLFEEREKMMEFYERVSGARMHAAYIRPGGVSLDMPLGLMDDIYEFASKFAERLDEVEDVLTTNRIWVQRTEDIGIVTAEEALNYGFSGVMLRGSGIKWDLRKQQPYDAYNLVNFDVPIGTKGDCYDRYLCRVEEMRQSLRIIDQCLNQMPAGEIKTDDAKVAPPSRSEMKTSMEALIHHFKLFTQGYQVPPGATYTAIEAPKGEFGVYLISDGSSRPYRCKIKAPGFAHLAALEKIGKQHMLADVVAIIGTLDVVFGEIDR
T2 sequence (Q9VXK7 40-221, further chain): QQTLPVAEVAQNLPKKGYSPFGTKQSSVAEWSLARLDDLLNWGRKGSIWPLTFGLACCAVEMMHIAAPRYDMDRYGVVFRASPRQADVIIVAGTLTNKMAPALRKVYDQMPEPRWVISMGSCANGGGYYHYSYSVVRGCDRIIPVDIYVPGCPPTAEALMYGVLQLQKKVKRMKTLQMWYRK
T2 sequence (C7DZL9 1-315, further chain): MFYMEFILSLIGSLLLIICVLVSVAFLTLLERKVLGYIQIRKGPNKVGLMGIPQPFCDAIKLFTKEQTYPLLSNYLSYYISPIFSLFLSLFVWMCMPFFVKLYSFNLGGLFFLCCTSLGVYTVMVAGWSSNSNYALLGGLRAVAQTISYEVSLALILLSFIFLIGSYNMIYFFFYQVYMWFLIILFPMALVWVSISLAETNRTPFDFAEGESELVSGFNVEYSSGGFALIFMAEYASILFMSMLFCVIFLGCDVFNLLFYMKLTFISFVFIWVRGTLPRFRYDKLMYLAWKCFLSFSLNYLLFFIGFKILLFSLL
T2 sequence (P18930 whole entry, further chain): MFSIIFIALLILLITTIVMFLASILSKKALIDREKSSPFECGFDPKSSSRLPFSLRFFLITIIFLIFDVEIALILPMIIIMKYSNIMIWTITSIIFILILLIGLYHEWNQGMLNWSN
T2 sequence (P18933 1-173, further chain): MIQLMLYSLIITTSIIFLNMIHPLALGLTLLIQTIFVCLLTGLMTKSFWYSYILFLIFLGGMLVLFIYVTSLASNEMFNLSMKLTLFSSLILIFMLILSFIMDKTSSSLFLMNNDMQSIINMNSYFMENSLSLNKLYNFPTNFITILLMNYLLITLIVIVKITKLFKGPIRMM

[3] = target: T3, Drosophila complex I (NADH-binding site at the FMN cofactor) (Drosophila melanogaster, UniProt Q9VMI3); settings: co-purified; Dm1 active state
T3 construct: gene ND-51; native 43-subunit complex I, ~1 MDa monomer, purified from mitochondrial membranes of whole adult flies in DDM; no tag; with NADH dehydrogenase [ubiquinone] iron-sulfur protein 2; NADH dehydrogenase [ubiquinone] iron-sulfur protein 7; NADH-ubiquinone oxidoreductase chain 1
T3 sequence (Q9VMI3 34-474, one chain of several): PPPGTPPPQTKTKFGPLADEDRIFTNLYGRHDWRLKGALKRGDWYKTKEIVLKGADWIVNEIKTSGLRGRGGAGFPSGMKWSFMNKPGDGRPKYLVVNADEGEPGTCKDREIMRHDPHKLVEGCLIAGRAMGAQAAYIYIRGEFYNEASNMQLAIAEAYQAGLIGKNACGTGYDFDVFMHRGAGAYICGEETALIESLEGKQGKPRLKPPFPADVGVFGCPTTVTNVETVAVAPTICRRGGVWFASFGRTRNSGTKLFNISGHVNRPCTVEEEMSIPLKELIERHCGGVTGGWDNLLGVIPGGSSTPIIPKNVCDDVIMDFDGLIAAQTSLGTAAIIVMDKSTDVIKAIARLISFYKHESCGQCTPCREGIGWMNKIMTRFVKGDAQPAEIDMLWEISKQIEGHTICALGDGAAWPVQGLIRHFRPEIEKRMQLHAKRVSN

## Nc1nc2c(ncn2[C@H]2C[C@H](O)[C@@H](COP(=O)(O)OP(=O)(O)OP(=O)(O)O)O2)c(=O)[nH]1 [dGTP]
[1]
  cryo-EM structure (3.28 A): dGTP was modelled in subunit NDUFA10

## COC1=C(OC)C(=O)C(C/C=C(\C)CC/C=C(\C)CC/C=C(\C)CC/C=C(\C)CC/C=C(\C)CC/C=C(\C)CC/C=C(\C)CC/C=C(\C)CCC=C(C)C)=C(C)C1=O [Q9]
[2]
  cryo-EM structure (3.28 A): density for Q9 is observed within the site, although the Q9 is only partially inserted

## Cc1cc2nc3c(=O)[nH]c(=O)nc-3n(C[C@H](O)[C@H](O)[C@H](O)COP(=O)(O)O)c2cc1C [FMN]
[3]
  cryo-EM structure (3.28 A): The NADH-binding site at the flavin mononucleotide (FMN) cofactor
